# In article PMC5663397, “A composite docking approach for the identification and characterization of ectosteric inhibitors of cathepsin K” (PLoS ONE, 2017):
# Several values for one entry are separate records, joined by “and”; a condition that tells them apart may be missing. Equal values may be shown once. Entries after “also recorded” stand apart in the source; their conditions may differ. Where a name gives a salt, the structure may show the parent alone. Read-outs that look alike come from different tables or passages of the source.
# Key:
# [1] = target: T1, CatK (Homo sapiens, UniProt P43235); assay: CatK collagenase assay (type I collagen degradation, SDS-PAGE); assay type: biochemical
# T1 construct: made in house; host or cells: Pichia pastoris
# T1 sequence (P43235 115-329): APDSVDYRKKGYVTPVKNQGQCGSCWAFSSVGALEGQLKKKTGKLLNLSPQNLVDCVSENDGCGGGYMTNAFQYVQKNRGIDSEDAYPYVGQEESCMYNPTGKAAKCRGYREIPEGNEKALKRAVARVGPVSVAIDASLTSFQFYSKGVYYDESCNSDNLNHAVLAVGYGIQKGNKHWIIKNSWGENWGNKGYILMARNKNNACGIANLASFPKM
# Method: The collagenase inhibitory activities of all identified compounds were measured using a collagen degradation assay. Soluble bovine type I collagen (0.6 mg/mL) was incubated with 400 nM recombinant human CatK, in the presence or absence of 200 nM chondroitin 4-sulfate (C4-S) in 100 mM sodium acetate buffer, pH 5.5, containing 2.5 mM dithiothreitol (DTT) (Sigma-Aldrich Canada, Oakville, Ontario, Canada) and 2.5 mM ethylenediametetraacetate (EDTA) (Sigma-Aldrich). In the experiments involving detergent to minimize inhibitor aggregation, 0.001% or 0.005% Triton X-100 was added to the buffer with the inhibitor. The recombinant human CatK was expressed in Pichia pastoris and purified as previously described. Selected compounds identified by molecular docking were ordered from the National Cancer Institute through the Developmental Therapeutics Program (Rockville, MD). All compounds were dissolved in DMSO as a 20 or […] stock. […] After incubation at 28°C for 4 hours, 1 μM of E-64 was added to block the residual activity of CatK.
# (§1) Digestion with MMP-1 was performed in 50 mM Tris-HCl, pH 7.4, containing 200 mM NaCl and 5 mM CaCl2 at 28°C for 4 h. Reactions were stopped by adding 25 mM EDTA as previously described. Samples were analyzed using 10% SDS-PAGE gels and stained with Coomassie. The resulting bands of α-collagen chains were quantitatively assessed using ImageJ (Version 1.5) and IC50 graphs were plotted using GraphPad Prism (GraphPad Software, Version 5.0, La Jolla California USA).
# [2] = target: T1, CatK; assay: Z-Phe-Arg-MCA cleavage assay with CatK; assay type: biochemical; conditions: 100 μM inhibitor, 5 nM CatK, 5 μM substrate, pH 5.5
# Method: (§2) The enzymatic activity of CatK was monitored by measuring the rate of release of the fluorogenic group, amino-methyl coumarin at an excitation wavelength of 380 nm and an emission wavelength of 450 nm using a Molecular Devices SpectraMax Gemini spectrofluorometer. Inhibitors were added prior to measurement of enzyme activity. The assays were performed at 25°C at a fixed enzyme concentrations (5 nM) and substrate concentration (5 μM) in 100 mM sodium acetate buffer, pH 5.5, containing 2.5 mM DTT and 2.5 mM EDTA. Z-Phe-Arg-MCA hydrolysis with trypsin was carried out in 50 mM Tris-HCl, pH 8.8 at 10 nM enzyme concentration.
# [3] = system: trypsin; assay: Z-Phe-Arg-MCA hydrolysis with trypsin; assay type: biochemical; conditions: 50 μM (5,000-times molar excess)
# Method: as §2, with “Evaluation of a potential active site inhibition of the compounds was performed using the fluorogenic Benzyloxycarbonyl-Phe-Arg-7-amido-4-methylcoumarin (Z-Phe-Arg-MCA) substrate (Bachem Americas, Inc, Torrance, California, USA) as previously described. The enzymatic” for “The enzymatic”
# [4] = target: T2, MMP-1 (Homo sapiens, UniProt P03956); assay: Collagen digestion with MMP-1; assay type: biochemical; conditions: 50 μM inhibitor, 400 nM MMP-1
# T2 sequence (P03956 100-469): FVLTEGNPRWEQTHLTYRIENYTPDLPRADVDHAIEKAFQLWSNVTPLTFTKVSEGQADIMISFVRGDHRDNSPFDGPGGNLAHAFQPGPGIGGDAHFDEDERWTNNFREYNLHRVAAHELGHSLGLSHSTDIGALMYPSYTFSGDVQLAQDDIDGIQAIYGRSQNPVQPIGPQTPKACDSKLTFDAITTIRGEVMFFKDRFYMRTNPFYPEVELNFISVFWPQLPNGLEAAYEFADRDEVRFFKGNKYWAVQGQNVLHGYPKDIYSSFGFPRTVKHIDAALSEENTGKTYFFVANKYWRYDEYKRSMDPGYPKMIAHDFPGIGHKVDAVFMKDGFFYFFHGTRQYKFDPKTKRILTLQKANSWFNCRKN
# Method: as §1
# [5] = target: T2, MMP-1; assay: Gelatin degradation assay with MMP-1; assay type: biochemical; conditions: 50 μM inhibitor, 10 nM MMP-1
# Method: Gelatin (0.6 mg/mL) degradation assays were performed in the same manner as the collagen degradation experiments with 10 nM enzyme and were incubated at 37°C for one hour at the appropriate pH values for the individual proteases (CatK, pH 5.5; MMP-1, pH 7.4; trypsin, pH 8.8).
# [6] = system: human osteoclasts; assay: Human osteoclast bone resorption assay on bone slices; assay type: cell-based; conditions: for IC50: human osteoclasts on bone slices, read-out: IC50 for inhibition of trench eroded surface per bone surface (bone resorption)
# Method: (§3) Osteoclasts were generated from mononuclear cells isolated from human bone marrow tissue (Lonza, Walkersville, MD). The bone marrow cells were centrifuged at 400 g for 5 min and the pellet was re-suspended in 10 mL α-MEM (α-Minimal Essential Media) and layered on 10 ml Ficoll-Plaque media solution. After centrifugation at 500 g for 30 min, the white interface containing the monocytes was harvested and washed twice with α-MEM. Cells were cultured in α-MEM containing 10% FBS and 25 ng/mL M-CSF for 24 hours and then cultured in 25 ng/mL RANKL and 25 ng/mL M-CSF for 7 days. Differentiated osteoclasts (100,000 cells per slice) were then seeded on each bone slice (5.5 mm diameter and 0.4 mm thickness; self-made) in the presence or absence of inhibitors and incubated for 72 hours at 5% CO2 and 37°C with the DMSO concentration at 0.1%. The inhibitor concentration range tested varied between 50 nM to 3 μM.
# (§4) To compare the effects of the compounds on cell survival, the metabolic activity of osteoclasts was determined using the CellTiter-Blue Viability Assay (Promega, Madison, WI, USA). Bone slices from each condition (inhibitor-treated and control groups) were fixed in 4% formaldehyde and subsequently stained for tartrate-resistant acid phosphatase (TRAcP) activity (Acid Phosphatase, Leukocyte (TRAP) Kit; Sigma-Aldrich). Aliquots from cell culture media were used to determine the CTx-I concentration (MyBiosource ELISA kit, San Diego, CA). CTx-I is a CatK-specific C-terminal cleavage product of triple helical type I collagen. The total number of osteoclasts per bone slice was determined after TRAcP staining. Cells with ≥2 nuclei were counted as osteoclasts. After 72 h, bone slices from each condition were incubated in filtered water for cell lysis and cells were removed using a cotton stick. Subsequently the resorption cavities were stained with toluidine blue and observed by light microscopy. The number of resorption events and eroded bone surface area were determined as previously described. All light microscopic analyses were performed using a Nikon Eclipse LV100 microscope and a Nikon Eclipse Ci microscope.
# [7] = system: human osteoclasts; assay: Osteoclast survival: CellTiter-Blue metabolic activity and osteoclast count after TRAcP staining; assay type: cell-based
# Method: as §3, §4
# [8] = system: Yeast; design: method as in earlier work; conditions: cited from earlier work
# [9] = system: human osteoclasts; conditions: cited from earlier work
# [10] = system: ovariectomiced mice; design: method as in PMID 28745432; conditions: cited from earlier work
# [11] = 400 nM CatK, soluble bovine type I collagen 0.6 mg/mL, pH 5.5, 28°C, 4 h, read-out: Collagenase IC50
# [12] = 1 μM inhibitor, 72 h, versus untreated
compound,measurement,setting,value
"Cc1c2c(c(O)c3c(O)cccc13)C(=O)C1(O)C(=O)C(C(N)=O)C(O)C(N(C)C)C1C2 (stereo not shown) [compound 6, 4-(dimethylamino)-3,10,11,12a-tetrahydroxy-6-methyl-1,12-dioxo-3,4,4a,5-tetrahydro-2H-tetracene-2-carboxamide]",IC50,[1]; [11],~35 µM and 34.8 µM
same,inhibition at 100 µM,[2],11.5 ± 2.6%
same,inhibition of Z-Phe-Arg-MCA degradation by trypsin,[3],60%
"CCc1cc2nc3c(=O)[nH]c(=O)nc-3n(CCN(CCO)CCO)c2cc1CC [compound 1, 10-[2-[bis(2-hydroxyethyl)amino]ethyl]-7,8-diethylbenzo[γ]pteridine-2,4-dione]",IC50,[1]; [11],< 20 µM and 4.7 µM and ~5 µM
same,IC50,"[1]; Collagenase IC50 with 0.005% Triton X-100, in the presence of detergent, 0.005% Triton X-100",5.1 ± 1 µM
same,Collagenase IC50 with 0.005% Triton X-100,"[1]; in the presence of detergent, 0.005% Triton X-100",not significantly different
same,inhibition at 100 µM,[2],9.5 ± 2.6%
same,inhibitory activity towards the collagenase activity of MMP-1,[4],no inhibitory activity; also recorded: did not show inhibition
same,inhibitory activity for the gelatinase activity of MMP-1,[5],no inhibitory activity; also recorded: did not show inhibition
same,Number of trenches,[6]; [12],significant reduction
same,percentage of eroded surface area / total eroded surface,[6]; [12],very effective in reducing the total eroded surface; also recorded: significant reduction
same,IC50,"[6]; Homo sapiens, Osteoclast, 72 h, 72 h",~0.3 µM
same,IC50,[6]; 72 h,0.312 ± 0.063 µM
same,"overall potency, times lower than odanacatib","[6]; osteoclast resorption assay, versus odanacatib",15–20 times
same,Metabolic activity of osteoclasts,"[7]; CellTiter-Blue, compared with untreated cells",no significant differences
same,number of osteoclasts,"[7]; TRAcP staining, compared with untreated cells",no significant differences
same,cell toxicity,[7]; osteoclast bone resorption assays,no cell toxicity effects
same,activity in NCI Yeast Anticancer Drug Screen,[8],active
"CCN(CC)CC1=C/C(=N/NC2=C3C=CC(=O)C(NNc4ccc(O)c(CN(CC)CC)c4)=C3C=CC2=O)C=CC1=O.Cl [compound 9, 1-[2-[3-(diethylaminomethyl)-4-hydroxyphenyl]hydrazinyl]-5-[(2E)-2-[3-(diethylaminomethyl)-4-oxocyclohexa-2,5-dien-1-ylidene]hydrazinyl]naphthalene-2,6-dione hydrochloride]",IC50,[1]; [11],< 20 µM
same,inhibition at 100 µM,[2],3.2 ± 0.8%
same,activity in NCI Yeast Anticancer Drug Screen,[8],active
"CCN(CC)CCNc1ccc2ncn3c4ccccc4c(=O)c1c23 [compound 5, 5-{[2-(diethylamino)ethyl]amino}-6H-imidazo[4,5,1-de]acridin-6-one hydrochloride (1:1)]",IC50,[1]; [11],< 20 µM and 13 µM
same,inhibition at 100 µM,[2],3.7 ± 0.7%
CSCCC(NCC(N)Cc1ccc2ccccc2c1)C(=O)NCc1cccc(C(=O)NC(CNC(CC(C)C)C(=O)O)Cc2ccccc2)c1 (stereo not shown) [compound 719315],IC50,[1]; [11],88 µM
"O=C(Nc1cccc(C(=O)Nc2cccc(C3=NCCN3)c2)c1)Nc1cccc(C(=O)Nc2cccc(C3=NCCN3)c2)c1 [compound 8, N-[3-(4,5-dihydro-1H-imidazol-2-yl)phenyl]-3-[[3-[[3-(4,5-dihydro-1H-imidazol-2-yl)phenyl]carbamoyl]phenyl]carbamoylamino]benzamide hydrochloride]",IC50,[1]; [11],12.8 µM and < 20 µM
same,inhibition at 100 µM,[2],7.2 ± 3.6%
CC1CN=C(c2cccc(NC(=O)c3ccc(C(=O)Nc4cccc(C5=NCC(C)N5)c4)c(N)c3)c2)N1 (stereo not shown) [compound 80116],IC50,[1]; [11],89 µM
Cc1c(S(=O)(=O)O)oc2c1C(=O)C(=O)c1c-2ccc2c1CCCC2(C)C [tanshinone IIA sulfonate],IC50,[9]; read-out: IC50 in osteoclast resorption assay,0.24 µM
same,efficacy in ovariectomiced mice,[10],showed efficacy
CC(C)(F)C[C@H](N[C@@H](c1ccc(-c2ccc(S(C)(=O)=O)cc2)cc1)C(F)(F)F)C(=O)NC1(C#N)CC1 [odanacatib],IC50,[9]; read-out: IC50 for human-osteoclast-mediated bone resorption,0.0146 µM
"CCc1nc2ccc(NCCN(C)C)c3c(=O)c4ccccc4n1c23 [compound 4, 5-(2-(dimethylamino)ethylamino)-1-ethyl-6H-imidazo[4,5,1-de]acridin-6-one]",IC50,[1]; [11],< 20 µM and 9.9 µM
same,inhibition at 100 µM,[2],2.3 ± 0.9%
"CN(C)CCNc1ccc2ncn3c4ccc(O)cc4c(=O)c1c23 [compound 2, 2-((8-hydroxy-6-oxo-6H-imidazo[4,5,1-de]acridin-5-yl)amino)-N,N-dimethylethanaminium]",IC50,[1]; [11],< 20 µM and 7.6 µM
same,inhibition at 100 µM,[2],6.1 ± 3.9%
